Entries after “also recorded” stand apart in the source; their conditions may differ.
Assays:
[1] = tested on: osteoblasts and osteocytes; experiment: osteoblast and osteocyte apoptosis in vertebral bone of ovariectomized mice (TUNEL); assay type: in vivo, Swiss Webster mice
Source text: The degree of apoptosis of osteoblasts and osteocytes in murine vertebral bone as a function of estrogen deficiency was examined. Swiss Webster mice (four months old) were ovariectomized. Twenty-eight days later, the animals were sacrificed, vertebrae were isolated, fixed and embedded, and then undecalcified in methacrylate.

[2] = tested on: blood glucose in db/db mice; experiment: glucose lowering in diabetic db/db mice; assay type: in vivo, db/db C57BL/Ks mice
Description: Glucose lowering and amelioration of insulin resistance. Glucose lowering effects and amelioration of insulin resistance was assessed in the diabetic db/db mouse model of human diabetes and insulin resistance. In these studies, db/db C57BL/Ks mice of approximately 8 to 10 weeks of age were divided into groups of 10 each and then treated with a vehicle control (no drug) or 17α-ethynylandrost-5-ene-3β,7β,17β-triol by oral gavage. The compound was administered twice a day at 20 mg/kg/day (10 mg/kg dose administered twice per day), 40 mg/kg/day (20 mg/kg dose administered twice per day) or 80 mg/kg/day (40 mg/kg dose administered twice per day) for up to 28 days. Blood glucose levels were monitored twice a week during the dosing period, using a minute amount of blood (nick tail bleeds) to measure the concentration of glucose by glucometer strips. At specific times during the dosing period (day 14 and day 28), an oral glucose tolerance test (OGTT) was also performed by administering a standard oral dose of 1 g/kg glucose (approximately 40 mg in a […]) and then the fluctuation of blood glucose levels was monitored quickly thereafter after at 15, 30, 60 and 120 minutes after the glucose dose. […] Blood glucose approached 380 mg/dL in the vehicle control group and was <230 mg/dL after at least 10 days of dosing in the drug treated group.
A treatment protocol similar to that described in example 15 was performed with db/db mice that were younger than the animals described in example 15. The animals (n=8 to 10 per group) were treated with 17α-ethynylandrost-5-ene-3β,7β,17β-triol or vehicle by oral gavage twice per day at 40 mg/kg/day (20 mg/kg dose given twice per day) and 80 mg/kg/day (40 mg/kg dose given twice per day). At the start of dosing, the animals were 6 weeks of age, before the onset of elevated glucose levels or hyperglycemia. Dosing with vehicle or drug was maintained for 32 days to determine the effect of the treatments on the onset and rate of progression of hyperglycemia in the animals. In the control group, the onset of hyperglycemia was observed after 25 days of dosing and it continued to worsen, i.e., blood glucose levels rose from normal to frank hyperglycemia, through the end of the 32 day dosing period.

estrogen receptor-α = estrogen receptor-α (Homo sapiens, UniProt P03372); experiment: interaction with sex hormone receptor; assay type: binding
[3] = tested on: popliteal lymph node cells; experiment: reporter antigen popliteal lymph node (PLN) assay; assay type: in vivo, BALB/C mice
Source text: Analysis of immune suppression. Glucocorticoid steroids such as dexamethasone or hydrocortisone are typically immune suppressive and have significant toxicities associated with their use. Immune suppression was examined in a reporter antigen popliteal lymph node assay in mice essentially as previously described (C. Goebel et al., Inflamm. Res., 45(Suppl. 2):S85-S90, 1996; R. Pieters et al., Environmental Health Perspectives 107(Suppl. 5):673-677, 1999). […] In this protocol, the vehicle was 0.1% carboxymethylcellulose, 0.9% saline, 2% tween 80 and 0.05% phenol, which contained 17α-ethynylandrost-5-ene-3β,7β,17β-triol in suspension in drug treated animals. Assessment of activity included (1) measuring suppression of numbers of total lymphocytes, antigen specific IgM, IgG1 and IgG2a antibody secreting cells (ASC) (ELISPOT assay) in popliteal lymph node cells; (2) analysis of cell surface marker (CD4, CD8, CD19, F480, CD80, CD86) expression by flow cytometry of living cells in suspension; and (3) IL-4, TNFα and IFNγ production by lymphocytes in vitro (ELISA).
Groups (n=5 per group) of specific pathogen free BALB/C mice were used. The Positive control group was treated with vehicle (oral gavage) and 5 μg/day dexamethasone by subcutaneous injection to induce immune suppression. Vehicle control animals (negative control) were treated with vehicle alone (oral gavage). One group of animals was treated with 17α-ethynylandrost-5-ene-3β,7β,17β-triol at 0.1 mg/day by oral gavage. Another group was treated with 1 mg/day of 17α-ethynylandrost-5-ene-3β,7β,17β-triol was administered to the animals oral gavage. The results were analyzed by two-tailed Student's t-test with equal variance. The animals were injected in the right hind footpad with 50 μL of freshly prepared sensitizing dose of TNP-OVA. […] Single cell suspensions were prepared, resuspended in 1 mL PBS-BSA (1%) and counted. Cell numbers, IL-4, IL-5 and IFNγ were measured.

11β-HSD1 = experiment: expression of 11β-HSD1 in osteoblasts of treated mice; conditions: mouse, in vivo
[4] = tested on: monocyte chemoattractant protein-1 (MCP-1); experiment: MCP-1 RNA in perigonadal fat tissue by quantitative RT/PCR; assay type: in vivo, db/db mice; conditions: 20 mg/kg; normalized to vehicle control
Description: In another study, total RNA from perigonadal fat tissue from lean db/+ or diabetic db/db mice treated with 20 mg/kg of 17α-ethynylandrost-5-ene-3β,7β,17β-triol was isolated and processed for quantitative RT/PCR using primers specific for monocyte chemoattractant protein-1 (MCP-1) using an icycler iQ multicolor real time-detection system (Bio-Rad). RNA expression levels were normalized with respect to the vehicle control. […] For this study, vehicle was also administered to a control group of age matched lean heterozygous db/+ mice (n=7).

Chain of estrogen receptor-α (P03372 whole entry): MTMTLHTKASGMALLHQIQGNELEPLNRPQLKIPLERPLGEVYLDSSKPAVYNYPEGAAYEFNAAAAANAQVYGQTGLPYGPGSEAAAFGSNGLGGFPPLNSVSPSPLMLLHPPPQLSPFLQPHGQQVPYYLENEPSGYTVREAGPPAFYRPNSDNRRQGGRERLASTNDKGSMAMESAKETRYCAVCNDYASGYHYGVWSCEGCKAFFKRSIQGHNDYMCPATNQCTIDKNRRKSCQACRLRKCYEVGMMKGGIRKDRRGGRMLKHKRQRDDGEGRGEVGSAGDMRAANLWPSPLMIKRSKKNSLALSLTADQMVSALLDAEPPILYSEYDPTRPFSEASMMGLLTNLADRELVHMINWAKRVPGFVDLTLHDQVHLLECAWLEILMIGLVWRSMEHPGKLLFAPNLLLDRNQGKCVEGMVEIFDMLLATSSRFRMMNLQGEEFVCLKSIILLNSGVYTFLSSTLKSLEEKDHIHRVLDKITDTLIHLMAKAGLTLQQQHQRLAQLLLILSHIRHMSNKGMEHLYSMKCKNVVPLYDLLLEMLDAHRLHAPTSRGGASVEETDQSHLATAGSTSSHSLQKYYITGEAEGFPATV

Which results are given for `C#C[C@]1(O)CC[C@H]2[C@@H]3[C@@H](O)C=C4C[C@@H](O)CC[C@]4(C)[C@H]3CC[C@@]21C` [17α-ethynylandrost-5-ene-3β,7β,17β-triol]?
osteoblast and osteocyte apoptosis [1]: reduce apoptosis; OGTT peak glycemic excursion ([2]; 80 mg/kg b.i.d. for 28 days, 30-min post-oral glucose): < 200 mg/dL; onset of hyperglycemia ([2]; 6 week old db/db mice, 32 day dosing): did not rise above normal levels; also recorded: completely blocked progression; decrease in hyperglycemic blood glucose levels ([2]; 8 to 10 week old db/db mice, oral gavage twice a day): approximately 40%; basal blood glucose ([2]; 8 week old male db/db mice, 40 mg/kg dose group, twice a day): markedly suppressed; blood glucose ([2]; after at least 10 days of dosing): < 230 mg/dL; glucose intolerance in OGTT vs vehicle ([2]; treated db/db animals): significant amelioration of glucose intolerance; interaction with estrogen receptor-α (estrogen receptor-α): do not interact; average number of lymphocytes in PLNs ([3]; 0.1 mg/day oral gavage): 11.1×10^6 per lymph node; IFNγ, IL-4 and IL-5 levels compared to vehicle control ([3]; compound 1.0 and 0.1 mg/day, dexamethasone 5 μg/day): increased; decrease of expression of 11β-HSD1 in osteoblasts (11β-HSD1): about 50%; decrease of MCP-1 levels [4]: about 50%
